Measurements published in patent US20190084939A1, “ANALOGS OF FEXARAMINE AND METHODS OF MAKING AND USING” (Salk Institute for Biological Studies, priority 2014, published 2019).
Read-outs that look alike come from different tables or passages of the source.

Target: T1, Human FXR full length (Homo sapiens, UniProt Q96RI1)
T1 construct: Human FXR full length and RXR full length was obtained from Ronald Evans' laboratory; expressed in transfected cells; host or cells: CV-1 cells
T1 sequence (Q96RI1 1-476 isoform Q96RI1-1): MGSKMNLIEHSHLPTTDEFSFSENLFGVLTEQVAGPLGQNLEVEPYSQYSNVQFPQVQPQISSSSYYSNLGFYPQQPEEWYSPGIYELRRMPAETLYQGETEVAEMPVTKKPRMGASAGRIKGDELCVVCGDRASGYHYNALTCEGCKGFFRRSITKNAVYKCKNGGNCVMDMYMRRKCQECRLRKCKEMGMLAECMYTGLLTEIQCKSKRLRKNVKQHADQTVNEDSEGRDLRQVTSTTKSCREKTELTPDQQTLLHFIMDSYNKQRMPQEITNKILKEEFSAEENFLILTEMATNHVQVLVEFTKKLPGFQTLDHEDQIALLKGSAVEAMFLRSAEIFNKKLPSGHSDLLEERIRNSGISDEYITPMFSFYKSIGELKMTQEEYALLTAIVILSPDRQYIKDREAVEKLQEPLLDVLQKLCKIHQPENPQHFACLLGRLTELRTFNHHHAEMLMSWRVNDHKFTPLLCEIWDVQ
T1 sequence (P19793 1-462 partner): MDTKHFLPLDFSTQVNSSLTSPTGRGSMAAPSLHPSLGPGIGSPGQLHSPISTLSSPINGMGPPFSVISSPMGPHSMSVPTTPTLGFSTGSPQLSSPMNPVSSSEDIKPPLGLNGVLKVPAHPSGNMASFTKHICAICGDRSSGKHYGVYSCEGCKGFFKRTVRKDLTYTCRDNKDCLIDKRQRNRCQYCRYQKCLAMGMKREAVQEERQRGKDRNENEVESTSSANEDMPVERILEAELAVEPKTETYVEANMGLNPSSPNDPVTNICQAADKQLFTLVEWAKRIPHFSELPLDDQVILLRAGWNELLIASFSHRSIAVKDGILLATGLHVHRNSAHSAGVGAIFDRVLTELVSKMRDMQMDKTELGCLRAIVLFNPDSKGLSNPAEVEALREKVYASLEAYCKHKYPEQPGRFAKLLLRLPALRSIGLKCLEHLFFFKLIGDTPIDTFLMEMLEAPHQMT
Test: FXR activity screen, luciferase reporter in transfected CV-1 cells
Type: cell-based
Method: CV-1 cells were grown in DMEM+10% charcoal stripped FCS. Cells were seeded into 384-well plates the day before transfection to give a confluency of 50-80% at transfection. A total of […] DNA containing 0.32 micrograms pCMX-hFXRfl, 0.32 micrograms pCMX-hRXRfl, 0.1 micrograms pCMXβGal, 0.08 micrograms pGLFXRE reporter and 0.02 micrograms pCMX empty vector was transfected per well using FuGene transfection reagent according to the manufacturer's instructions (Roche). Cells were allowed to express protein for 48 hours followed by addition of compound.
Human FXR full length and RXR full length was obtained from Ronald Evans' laboratory and PCR amplification of the hFXR cDNA and the hRXR cDNA was performed. The amplified cDNAs was cloned into the vector pCMX generating the plasmids pCMX-hFXRfl and pCMX-hRXRfl. Ensuing fusions were verified by sequencing. The pCMXMH2004 luciferase reporter contains multiple copies of the GAL4 DNA response element under a minimal eukaryotic promoter (Hollenberg and Evans, 1988). pCMXβGal was generated in the Evans laboratory, Salk Institute.
All compounds were dissolved in DMSO and diluted 1:1000 upon addition to the cells. Compounds were tested in quadruple in concentrations ranging from 0.001 to 100 μM. Cells were treated with compound for 24 hours followed by luciferase assay. Each compound was tested in at least two separate experiments.
Medium including test compound was aspirated and washed with PBS. 50 μL PBS including 1 mM Mg^2+ and Ca^2+ were then added to each well. The luciferase assay was performed using the LucLite kit according to the manufacturer's instructions (Packard Instruments). Light emission was quantified by counting on a Perkin Elmer Envision reader. To measure […] activity 25 μL supernatant from each transfection lysate was transferred to a new 384 microplate. Beta-galactosidase assays were performed in the microwell plates using a kit from Promega and read in a Perkin Elmer Envision reader. The beta-galactosidase data were used to normalize (transfection efficiency, cell growth etc.) the luciferase data.
The activity of a compound is calculated as fold induction compared to an untreated sample. For each compound the efficacy (maximal activity) is given as a relative activity compared to Fexaramine, a FXR agonist. The EC50 is the concentration giving 50% of maximal observed activity. EC50 values were calculated via non-linear regression using GraphPad PRISM (GraphPad Software, San Diego, Calif.).

[1] = first round, CV-1 cells, 24 hours, read-out: 1st RND EC50
[2] = second round, CV-1 cells, 24 hours, read-out: 2nd RND EC50

EC50 [1] [nM] | EC50 [2] [nM] | EC50 (retest, read-out: EC50 (retested)) [nM] | SMILES
68.6 | 55.8 |  | COC(=O)/C=C/c1cccc(N(Cc2cccc3ccc(N(C)C)cc23)C(=O)C2CCCCC2)c1 [NSSK00001]
96.8 | 65.9 |  | COC(=O)/C=C/c1cccc(N(Cc2cccc3ccc(N(C)C)c(F)c23)C(=O)C2CCCCC2)c1 [NSSK00002]
237 | 266 |  | COC(=O)/C=C/c1cccc(N(Cc2ccc(-c3ccc4c(cnn4C)c3)cc2)C(=O)C2CCCCC2)c1 [NSSK00004]
1820 | 2100 |  | COC(=O)/C=C/c1cncc(N(Cc2cccc3cc4cnn(C)c4cc23)C(=O)C2CCCCC2)c1 [NSSK00005]
273 | 243 |  | COC(=O)/C=C/c1cccc(N(Cc2cccc3cc4cnn(C)c4c(F)c23)C(=O)C2CCCCC2)c1 [NSSK00006]
473 | 169 |  | COC(=O)/C=C/c1cc(F)cc(N(Cc2cccc3cc4cnn(C)c4c(F)c23)C(=O)C2CCCCC2)c1 [NSSK00007]
2000 | 1400 |  | COC(=O)/C=C/c1cncc(N(Cc2cccc3cc4cnn(C)c4c(F)c23)C(=O)C2CCCCC2)c1 [NSSK00008]
3300 | 4900 |  | COC(=O)/C=C/c1cncc(N(Cc2cccc3cc4cnn(C)c4c(Cl)c23)C(=O)C2CCCCC2)c1 [NSSK00009]
289 | 379 |  | [2H]C(c1ccc(-c2ccc3c(cnn3C)c2)cc1F)N(C(=O)C1CCCCC1)c1cc(F)cc(/C=C/C(=O)OC)c1 (centres unmarked) [NSSK00011]
1200 | 1200 |  | [2H]C(c1ccc(-c2ccc3c(cnn3C)c2)cc1F)N(C(=O)C1CCCCC1)c1cncc(/C=C/C(=O)OC)c1 (centres unmarked) [NSSK00012]
390 | 430 |  | [2H]C(c1ccc(-c2ccc3c(cnn3C)c2)cc1Cl)N(C(=O)[C@@H]1C[C@@H]2CC[C@H]1C2)c1cccc(/C=C/C(=O)OC)c1 (some centres unmarked) [NSSK00013]
346 | 475 |  | [2H]C(c1ccc(-c2ccc3c(cnn3C)c2)cc1Cl)N(C(=O)C1CCCCC1)c1cccc(/C=C/C(=O)OC)c1 (centres unmarked) [NSSK00014]
285 | 377 |  | [2H]C(c1ccc(-c2ccc3c(cnn3C)c2)cc1Cl)N(C(=O)C1CCCCC1)c1cc(F)cc(/C=C/C(=O)OC)c1 (centres unmarked) [NSSK00016]
756 | 500 |  | COC(=O)/C=C/c1cccc(N(Cc2ccc(-c3ccc4c(cnn4C)c3)cc2)C(=O)[C@H]2C[C@H]3CC[C@@H]2C3)c1 [NSSK00017]
380 | 415 |  | COC(=O)/C=C/c1cncc(N(Cc2cccc3cc4cnn(C)c4cc23)C(=O)[C@@H]2C[C@@H]3CC[C@H]2C3)c1 [NSSK00018]
923 | 554 |  | COC(=O)/C=C/c1cccc(N(Cc2cccc3cc4cnn(C)c4c(F)c23)C(=O)C2C[C@H]3CC[C@@H]2C3)c1 (some centres unmarked) [NSSK00019]
743 | 464 |  | COC(=O)/C=C/c1cc(F)cc(N(Cc2cccc3cc4cnn(C)c4c(F)c23)C(=O)C2C[C@H]3CC[C@@H]2C3)c1 (some centres unmarked) [NSSK00020]
3200 | 2700 |  | COC(=O)/C=C/c1cncc(N(Cc2cccc3cc4cnn(C)c4c(Cl)c23)C(=O)C2C[C@H]3CC[C@@H]2C3)c1 (some centres unmarked) [NSSK00022]
150 | 168 |  | [2H]C(c1ccc(-c2ccc(N(C)C)cc2)cc1)N(C(=O)C1CCCCC1)c1cc(F)cc(/C=C/C(=O)OC)c1 (centres unmarked) [NSSK00025]

EC50 [1] [nM] | EC50 [2] [nM] | EC50 (retest, read-out: EC50 (retested)) [nM] | SMILES
587 | 910 |  | [2H]C(c1ccc(-c2ccc(N(C)C)cc2)cc1)N(C(=O)[C@@H]1C[C@@H]2CC[C@H]1C2)c1cncc(/C=C/C(=O)OC)c1 (some centres unmarked) [NSSK00026]
48.9 | 46.6 | 118 | [2H]C(c1ccc(-c2ccc(N(C)C)cc2)cc1F)N(C(=O)C1CCCCC1)c1cccc(/C=C/C(=O)OC)c1 (centres unmarked) [NSSK00027, methyl (E)-3-(3-(N-((4′-(dimethylamino)-3-fluoro-[1,1′-biphenyl]-4-yl)methyl-d)cyclohexanecarboxamido)phenyl)acrylate]
605 | 510 |  | [2H]C(c1ccc(-c2ccc(N(C)C)cc2)cc1F)N(C(=O)[C@@H]1C[C@@H]2CC[C@H]1C2)c1cncc(/C=C/C(=O)OC)c1 (some centres unmarked) [NSSK00029]
656 | 375 |  | [2H]C(c1ccc(-c2ccc(N(C)C)cc2)cc1F)N(C(=O)C1CCCCC1)c1cncc(/C=C/C(=O)OC)c1 (centres unmarked) [NSSK00030]
366 | 249 |  | [2H]C(c1ccc(-c2ccc(N(C)C)cc2)cc1Cl)N(C(=O)C1CCCCC1)c1cccc(/C=C/C(=O)OC)c1 (centres unmarked) [NSSK00031]
2600 | 2900 |  | [2H]C(c1ccc(-c2ccc(N(C)C)cc2)cc1Cl)N(C(=O)C1CCCCC1)c1cncc(/C=C/C(=O)OC)c1 (centres unmarked) [NSSK00032]
169 | 254 |  | [2H]C(c1ccc(-c2ccc3c(cnn3C)c2)cc1)N(C(=O)C1CCCCC1)c1cccc(/C=C/C(=O)OC)c1 (centres unmarked) [NSSK00033]
2200 | 2680 |  | [2H]C(c1ccc(-c2ccc3c(cnn3C)c2)cc1)N(C(=O)C1CCCCC1)c1cncc(/C=C/C(=O)OC)c1 (centres unmarked) [NSSK00034]
3300 | 4490 |  | COC(=O)/C=C/c1cccc(N(Cc2ccc(-c3ccc4c(cnn4C)c3)cc2)C(=O)C2CCN(C)CC2)c1 [NSSK00035]
18600 | 4900 |  | COC(=O)/C=C/c1cccc(N(Cc2cccc3cc4cnn(C)c4c(F)c23)C(=O)C2CCN(C)CC2)c1 [NSSK00036]
1370 | 1900 |  | [2H]C(c1ccc(-c2ccc3c(cnn3C)c2)cc1F)N(C(=O)c1ccccc1)c1cccc(/C=C/C(=O)OC)c1 (centres unmarked) [NSSK00038]
1550 | 870 |  | [2H]C(c1ccc(-c2ccc3c(cnn3C)c2)cc1F)N(C(=O)c1ccccc1)c1cc(F)cc(/C=C/C(=O)OC)c1 (centres unmarked) [NSSK00039]
1100 | 1200 |  | [2H]C(c1ccc(-c2ccc3c(cnn3C)c2)cc1Cl)N(C(=O)c1ccccc1)c1cc(F)cc(/C=C/C(=O)OC)c1 (centres unmarked) [NSSK00041]
135 | 620 |  | COC(=O)/C=C/c1cccc(N(Cc2ccc(-c3ccc(N(C)C)cc3)cc2)C(=O)[C@@H]2C[C@@H]3CC[C@H]2C3)c1 [NSSK00042]
80.9 | 80.7 |  | COC(=O)/C=C/c1cccc(N(Cc2ccc(-c3ccc(N(C)C)cc3)cc2F)C(=O)[C@@H]2C[C@@H]3CC[C@H]2C3)c1 [NSSK00043]
149 | 144 |  | COC(=O)/C=C/c1cc(F)cc(N(Cc2ccc(-c3ccc(N(C)C)cc3)cc2F)C(=O)[C@@H]2C[C@@H]3CC[C@H]2C3)c1 [NSSK00044]
334 | 334 |  | [2H]C(c1ccc(-c2ccc(N(C)C)cc2)cc1Cl)N(C(=O)[C@@H]1C[C@@H]2CC[C@H]1C2)c1cccc(/C=C/C(=O)OC)c1 (some centres unmarked) [NSSK00045]
639 | 519 |  | COC(=O)/C=C/c1cccc(N(Cc2ccc(-c3ccc4c(cnn4C)c3)cc2Cl)C(=O)[C@@H]2C[C@@H]3CC[C@H]2C3)c1 [NSSK00046]
355 | 403 |  | COC(=O)/C=C/c1cc(F)cc(N(Cc2ccc(-c3ccc4c(cnn4C)c3)cc2Cl)C(=O)[C@@H]2C[C@@H]3CC[C@H]2C3)c1 [NSSK00047]
